This is an account of results in patent US20240188569A1, “NEW YEAST STRAIN AND ITS USES FOR THE CONTROL OF PHYTOPATHOGENS” (AGROVENTURES LLC, priority 2021, published 2024).

The test system of the experiment is PT22AV. Kind of experiment: Minimum inhibitory concentration of fungicides in NYDA agar. The conditions noted are these: resistance level of PT22AV to the fungicide.

Structures are written as SMILES.

For `N#Cc1c[nH]cc1-c1cccc2c1OC(F)(F)O2` [Fludioxonil], the Resistance level result is “Resistant”.
